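Five compound concentrations were applied to cells in 96-well plates for 48 hours; endpoints were derived by simple linear interpolation of the resulting dose-response curve. Here, GI50 denotes the concentration required for 50% inhibition of growth.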 The source made the active and inactive calls. Rule as the data show it: active = GI50 up to about 1.1 µM and inactive = higher.
How the values were obtained:
Assay in all cases: growth of human tumour cells (NCI), 48 h
HOP-62 = tested on: HOP-62
NCI-H226 = tested on: NCI-H226
NCI-H23 = tested on: NCI-H23
RPMI-8226 = tested on: RPMI-8226
RXF 393 = tested on: RXF 393
SF-268 = tested on: SF-268
SK-MEL-28 = tested on: SK-MEL-28
SK-MEL-5 = tested on: SK-MEL-5
SK-OV-3 = tested on: SK-OV-3
SNB-19 = tested on: SNB-19
TK-10 = tested on: TK-10
UO-31 = tested on: UO-31
CAKI-1 = tested on: CAKI-1
HL-60 = tested on: HL-60
LOX IMVI = tested on: LOX IMVI
OVCAR-3 = tested on: OVCAR-3

Measured: GI50

COc1ccc(CC(=O)NCCc2ccc(OC)c(OC)c2OC)cc1
inactive: HOP-62 > 100 µM | NCI-H226 > 100 µM | NCI-H23 > 100 µM | RPMI-8226 > 100 µM | RXF 393 > 100 µM | SF-268 > 100 µM | SK-MEL-28 > 100 µM | SK-MEL-5 > 100 µM | SK-OV-3 > 100 µM | SNB-19 > 100 µM | TK-10 > 100 µM | UO-31 > 100 µM

COc1ccc(-c2onc(-c3c(C)cc(C)cc3C)c2C2=NCCCN2)cc1
inactive: CAKI-1 13.6 µM | HL-60 15.1 µM | HOP-62 > 100 µM | LOX IMVI 43.3 µM | NCI-H226 36.4 µM | NCI-H23 > 100 µM | OVCAR-3 57 µM | RPMI-8226 23.6 µM | RXF 393 47.3 µM | SF-268 36.7 µM | SK-MEL-28 36.4 µM | SK-MEL-5 23 µM | SK-OV-3 30.6 µM | SNB-19 35.1 µM | UO-31 21.1 µM

COc1ccc(NC(=O)CCc2cc(C(C)(C)C)[nH]n2)cc1
inactive: CAKI-1 > 100 µM | HL-60 > 100 µM | HOP-62 > 100 µM | LOX IMVI > 100 µM | NCI-H226 > 100 µM | NCI-H23 > 100 µM | OVCAR-3 > 100 µM | RPMI-8226 > 100 µM | RXF 393 > 100 µM | SF-268 > 100 µM | SK-MEL-28 > 100 µM | SK-MEL-5 > 100 µM | SK-OV-3 > 100 µM | SNB-19 > 100 µM | TK-10 > 100 µM | UO-31 > 100 µM

CCO/C=C1\N=C(c2ccccc2Br)OC1=O
inactive: CAKI-1 > 100 µM | HL-60 > 100 µM | HOP-62 > 100 µM | LOX IMVI > 100 µM | NCI-H226 > 100 µM | NCI-H23 > 100 µM | OVCAR-3 > 100 µM | RPMI-8226 > 100 µM | RXF 393 > 100 µM | SF-268 > 100 µM | SK-MEL-28 > 100 µM | SK-OV-3 > 100 µM | SNB-19 > 100 µM | TK-10 > 100 µM | UO-31 > 100 µM

O=C1[C@@H]2C(c3ccccc3[N+](=O)[O-])=NO[C@@H]2C(=O)N1c1ccc(Cc2ccc(N3C(=O)[C@H]4C(c5ccccc5[N+](=O)[O-])=NO[C@H]4C3=O)cc2)cc1
inactive: CAKI-1 > 100 µM | HOP-62 > 100 µM | LOX IMVI > 100 µM | NCI-H23 > 100 µM | OVCAR-3 > 100 µM | RPMI-8226 > 100 µM | RXF 393 > 100 µM | SF-268 > 100 µM | SK-MEL-28 > 100 µM | SK-MEL-5 > 100 µM | SNB-19 > 100 µM | TK-10 > 100 µM | UO-31 > 100 µM

CCOC(=O)CC1(C(=O)OCC)c2[nH]c3ccccc3c2CCN1Cc1ccccc1 (stereo not drawn)
inactive: CAKI-1 31 µM | HL-60 21.6 µM | HOP-62 18.1 µM | LOX IMVI 18.5 µM | NCI-H226 19.1 µM | NCI-H23 15.9 µM | OVCAR-3 14.1 µM | RXF 393 17.7 µM | SF-268 20.2 µM | SK-MEL-28 20.4 µM | SK-MEL-5 20 µM | SK-OV-3 28.5 µM | SNB-19 38.4 µM | TK-10 31.2 µM | UO-31 18.4 µM

COc1cc(/C=N\O[Si](C)(C)C(C)(C)C)ccc1O[Si](C)(C)C(C)(C)C
inactive: CAKI-1 > 100 µM | HL-60 37.8 µM | HOP-62 > 100 µM | LOX IMVI 26.6 µM | OVCAR-3 22.3 µM | RPMI-8226 56.6 µM | RXF 393 36 µM | SF-268 67.9 µM | SK-MEL-5 > 100 µM | SK-OV-3 > 100 µM | SNB-19 76.9 µM | TK-10 > 100 µM | UO-31 > 100 µM

O=S1(=O)OCCOS(=O)(=O)C1(Cl)Cl
inactive: CAKI-1 47 µM | HL-60 42 µM | HOP-62 64.9 µM | LOX IMVI 61.4 µM | NCI-H226 41.1 µM | NCI-H23 > 100 µM | OVCAR-3 > 100 µM | RPMI-8226 > 100 µM | SF-268 43.5 µM | SK-MEL-28 > 100 µM | SK-MEL-5 74.8 µM | SK-OV-3 > 100 µM | SNB-19 91.4 µM | TK-10 > 100 µM | UO-31 99.8 µM

NC(=O)c1coc(C2OC(CO)C(O)C2O)n1 (stereo not drawn)
inactive: CAKI-1 > 10 µM | HL-60 > 100 µM | HOP-62 > 100 µM | LOX IMVI > 100 µM | NCI-H226 > 100 µM | NCI-H23 > 100 µM | OVCAR-3 > 100 µM | RPMI-8226 > 100 µM | SF-268 > 100 µM | SK-MEL-28 > 100 µM | SK-OV-3 > 100 µM | SNB-19 > 100 µM | TK-10 > 100 µM | UO-31 > 100 µM

NC(=S)N/C=C1\C(=O)Oc2ccccc2C1=O
inactive: CAKI-1 20.7 µM | HL-60 > 100 µM | LOX IMVI > 100 µM | NCI-H226 21.9 µM | NCI-H23 > 100 µM | OVCAR-3 37.3 µM | RPMI-8226 > 100 µM | RXF 393 18.4 µM | SF-268 24.7 µM | SK-MEL-28 > 100 µM | SK-MEL-5 42.3 µM | SK-OV-3 51.2 µM | SNB-19 68.5 µM | TK-10 90.4 µM | UO-31 27.5 µM

O=C1OC(c2cccc(C(F)(F)F)c2)c2ccc3ccccc3c21 (stereo not drawn)
inactive: CAKI-1 > 10 µM | HL-60 5.5 µM | HOP-62 > 10 µM | LOX IMVI 8.45 µM | NCI-H226 > 10 µM | NCI-H23 4.95 µM | OVCAR-3 > 10 µM | RXF 393 13.5 µM | SF-268 > 10 µM | SK-MEL-28 > 10 µM | SK-MEL-5 4.74 µM | SK-OV-3 > 10 µM | SNB-19 > 10 µM | TK-10 > 10 µM | UO-31 9.68 µM

CCCCCCC(/C=N/O)C(C)(O)CCC (stereo not drawn)
inactive: CAKI-1 > 100 µM | HL-60 67.9 µM | HOP-62 > 100 µM | LOX IMVI > 100 µM | NCI-H226 > 100 µM | NCI-H23 > 100 µM | OVCAR-3 > 100 µM | RPMI-8226 54 µM | RXF 393 > 100 µM | SF-268 > 100 µM | SK-MEL-28 > 100 µM | SK-MEL-5 > 100 µM | SNB-19 > 100 µM | TK-10 > 100 µM | UO-31 > 100 µM

COc1ccc(-c2nc(N)nc(-c3cc(C)ccc3O)c2Cl)cc1
inactive: CAKI-1 91.4 µM | HL-60 > 100 µM | HOP-62 41.7 µM | LOX IMVI 58.9 µM | NCI-H226 > 100 µM | NCI-H23 50.6 µM | OVCAR-3 30.6 µM | RPMI-8226 > 100 µM | RXF 393 37.2 µM | SF-268 26.4 µM | SK-MEL-28 47.6 µM | SK-OV-3 29.9 µM | SNB-19 32.9 µM | TK-10 32.7 µM | UO-31 26.7 µM

From ChEMBL document CHEMBL1201862, “PubChem BioAssay data set” (2004)
